Tests used:
Hep G2 = assay: MTT assay, Hep G2; assay type: cell-based, human; details: Homo sapiens, HepG2, 48 h, hepatocellular carcinoma, 48 h incubation
Procedure, shortened: (§1)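 5–10 × 10^3 cells/well, 24 h attach → compound 5, 10, 20, 50 µmol/L in medium, 48 h → MTT → 10% SDS, 24 h → A540. IC50 by nonlinear regression, n ≥ 3.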

MCF-10A = assay: MTT assay, MCF-10A non-cancerous cells; assay type: cell-based, human; details: non-cancerous epithelial breast cells, 48 h incubation
Procedure, shortened: (§2)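 Human MCF-10A breast epithelial and BJ-5ta dermal fibroblast cells seeded 24 h, then exposed to compounds at 5, 10, 20 and 50 µmol/L for 48 h at 37 °C. MTT with SDS solubilization, absorbance 540 nm. IC50 from nonlinear regression, ≥3 independent repeats.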

A549 = assay: MTT assay, A549; assay type: cell-based, human; details: Homo sapiens, A549, 48 h, lung adenocarcinoma, 48 h incubation
Procedure, shortened: as §1

Bj-5ta = assay: MTT assay, BJ-5ta non-cancerous fibroblasts; assay type: cell-based, human; details: Homo sapiens, Fibroblast, 48 h, non-cancerous dermal fibroblasts, 48 h incubation
Procedure, shortened: as §2

A2780 = assay: MTT assay, A2780; assay type: cell-based, human; details: ovarian adenocarcinoma, 48 h incubation
Procedure, shortened: as §1

HCT116 = assay: MTT assay, HCT116; assay type: cell-based, human; details: colorectal adenocarcinoma, 48 h incubation
Procedure, shortened: (§3)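 PATU 8902 and A2058 grown in DMEM, HCT116 and HeLa in RPMI 1640, both with 10% FBS; seeded 24 h before exposure to 5, 10, 20 and 50 µmol/L compound for 48 h. Viability by MTT, formazan dissolved in SDS, absorbance 540 nm; IC50 by nonlinear regression, ≥3 repeats.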

PATU = assay: MTT assay, PATU 8902; assay type: cell-based, human; details: Homo sapiens, PaTu 8902, 48 h, pancreas adenocarcinoma, 48 h incubation
Procedure, shortened: as §3

A2058 = assay: MTT assay, A2058; assay type: cell-based; details: Homo sapiens, A2058, 48 h, human melanoma, 48 h incubation
Procedure, shortened: as §3

HeLa = assay: MTT assay, HeLa; assay type: cell-based, human; details: cervical adenocarcinoma, 48 h incubation
Procedure, shortened: as §3

Structure (SMILES) | IC50 (Hep G2) | IC50 (MCF-10A; Homo sapiens, MCF-10A, 48 h) | IC50 (A549) | melting point | IC50 (Bj-5ta) | IC50 (A2780; Homo sapiens, A2780, 48 h) | IC50 (HCT116; Homo sapiens, HCT-116, 48 h) | IC50 (PATU) | IC50 (A2058) | IC50 (HeLa) | IC50 (HeLa; Homo sapiens, HeLa, 48 h) | IC50 (MCF-10A) | IC50 (HCT116) | IC50 (A2780)
O=C(COc1ccc(/C=C2\SC(=O)N(Cc3cccc4cc5ccccc5nc34)C2=O)cc1)Nc1ccccc1 [Compound 8a, 2-(4-{[(5Z)-3-[(Acridin-4-yl)methyl]-2,4-dioxo-1,3-thiazolidin-5-ylidene]methyl}phenoxy)-N-phenylacetamide] | > 50 µM | > 50 µM | > 50 µM | 258 to 259 °C (dec.) | > 50 µM | > 50 µM | 26.9 ± 1.85 µM | > 50 µM | > 50 µM | 21.1 ± 7.2 µM |  |  |  | 
COc1cc(NC(=O)COc2ccc(/C=C3\SC(=O)N(Cc4cccc5cc6ccccc6nc45)C3=O)cc2)cc(OC)c1OC [Compound 8c, 2-(4-{[(5Z)-3-[(Acridin-4-yl)methyl]-2,4-dioxo-1,3-thiazolidin-5-ylidene]methyl}phenoxy)-N-(3,4,5-trimethoxyphenyl)acetamide] | > 50 µM | > 50 µM | > 50 µM | 193 to 194 °C (dec.) | > 50 µM | > 50 µM | > 50 µM | > 50 µM | > 50 µM |  | > 50 µM |  |  | 
O=C(COc1ccc(/C=C2\SC(=O)N(Cc3cccc4cc5ccccc5nc34)C2=O)cc1)Nc1ccc([N+](=O)[O-])cc1 [Compound 8d, 2-(4-{[(5Z)-3-[(Acridin-4-yl)methyl]-2,4-dioxo-1,3-thiazolidin-5-ylidene]methyl}phenoxy)-N-(4-nitrophenyl)acetamide] | > 50 µM | > 50 µM | > 50 µM | > 300 °C (dec.) | > 50 µM | > 50 µM | 47.6 ± 3.8 µM | > 50 µM | > 50 µM |  | 44.9 ± 4.2 µM |  |  | 
COc1cc(NC(=O)COc2ccc(/C=C3\SC(=O)N(Cc4c5ccccc5nc5ccccc45)C3=O)cc2)cc(OC)c1OC [Compound 7c, 2-(4-{[(5Z)-3-[(Acridin-9-yl)methyl]-2,4-dioxo-1,3-thiazolidin-5-ylidene]methyl}phenoxy)-N-(3,4,5-trimethoxyphenyl)acetamide] | > 50 µM |  | > 50 µM | 248 to 249 °C | > 50 µM | > 50 µM |  | > 50 µM | > 50 µM | 6.8 ± 2.4 µM |  | 14.5 ± 2.5 µM | > 50 µM | 
COc1cc(/C=C2\SC(=O)N(Cc3cccc4cc5ccccc5nc34)C2=O)ccc1OCC(=O)Nc1ccccc1 [Compound 13a, 2-(4-{[(5Z)-3-[(Acridin-4-yl)methyl]-2,4-dioxo-1,3-thiazolidin-5-ylidene]methyl}-2-methoxyphenoxy)-N-phenylacetamide] | > 50 µM | > 50 µM | > 50 µM | 213 to 214 °C | > 50 µM | > 50 µM | > 50 µM | > 50 µM | 49.1 ± 0.85 µM |  | 41.9 ± 5.7 µM |  |  | 
COc1cc(/C=C2\SC(=O)N(Cc3c4ccccc4nc4ccccc34)C2=O)ccc1OCC(=O)Nc1cc(C(F)(F)F)cc(C(F)(F)F)c1 [Compound 12g, 2-(4-{[(5Z)-3-[(Acridin-9-yl)methyl]-2,4-dioxo-1,3-thiazolidin-5-ylidene]methyl}-2-methoxyphenoxy)-N-[3,5-bis(trifluoromethyl)phenyl]acetamide] | > 50 µM | > 50 µM | > 50 µM | 287 to 288 °C | > 50 µM | > 50 µM |  | > 50 µM | > 50 µM |  | 20.7 ± 5.3 µM |  | 6.7 ± 2 µM | 
O=C(COc1ccc(/C=C2\SC(=O)N(Cc3cccc4cc5ccccc5nc34)C2=O)cc1)Nc1cccc(C(F)(F)F)c1 [Compound 8f, 2-(4-{[(5Z)-3-[(Acridin-4-yl)methyl]-2,4-dioxo-1,3-thiazolidin-5-ylidene]methyl}phenoxy)-N-[3-(trifluoromethyl)phenyl]acetamide] | > 50 µM | > 50 µM | > 50 µM | 219 to 220 °C (dec.) | > 50 µM | > 50 µM | 25.1 ± 7.8 µM | > 50 µM | > 50 µM |  | 27.7 ± 4.6 µM |  |  | 
O=C(COc1ccc(/C=C2\SC(=O)N(Cc3c4ccccc4nc4ccccc34)C2=O)cc1)Nc1ccc([N+](=O)[O-])cc1 [Compound 7d, 2-(4-{[(5Z)-3-[(Acridin-9-yl)methyl]-2,4-dioxo-1,3-thiazolidin-5-ylidene]methyl}phenoxy)-N-(4-nitrophenyl)acetamide] | > 50 µM | > 50 µM | > 50 µM | 293 to 294 °C | > 50 µM | > 50 µM |  | > 50 µM | > 50 µM | 20.1 ± 2.95 µM |  |  | > 50 µM | 
COc1cc(NC(=O)COc2ccc(/C=C3\SC(=O)N(Cc4cccc5cc6ccccc6nc45)C3=O)cc2OC)cc(OC)c1 [Compound 13b, 2-(4-{[(5Z)-3-[(Acridin-4-yl)methyl]-2,4-dioxo-1,3-thiazolidin-5-ylidene]methyl}-2-methoxyphenoxy)-N-(3,5-dimethoxyphenyl)acetamide] | > 50 µM | 43.6 ± 3.3 µM | 38.9 ± 2.1 µM | 222 to 224 °C | 41.7 ± 0.8 µM | > 50 µM | 44.7 ± 4.1 µM | > 50 µM | 34.4 ± 2.45 µM |  | 25.7 ± 3.45 µM |  |  | 
COc1cc(NC(=O)COc2ccc(/C=C3\SC(=O)N(Cc4c5ccccc5nc5ccccc45)C3=O)cc2OC)cc(OC)c1 [Compound 12b, 2-(4-{[(5Z)-3-[(Acridin-9-yl)methyl]-2,4-dioxo-1,3-thiazolidin-5-ylidene]methyl}-2-methoxyphenoxy)-N-(3,5-dimethoxyphenyl)acetamide] | > 50 µM | 15.6 ± 2.6 µM | 34.5 ± 5.4 µM | 264 to 265 °C | > 50 µM |  |  | > 50 µM | > 50 µM |  | 7.3 ± 3.4 µM |  | 10.2 ± 2.1 µM | > 50 µM
COc1cc(/C=C2\SC(=O)N(Cc3cccc4cc5ccccc5nc34)C2=O)ccc1OCC(=O)Nc1cccc(C(F)(F)F)c1 [Compound 13f, 2-(4-{[(5Z)-3-[(Acridin-4-yl)methyl]-2,4-dioxo-1,3-thiazolidin-5-ylidene]methyl}-2-methoxyphenoxy)-N-[3-(trifluoromethyl)phenyl]acetamide] | > 50 µM | 28.9 ± 5.6 µM | > 50 µM | 203 to 205 °C | > 50 µM | > 50 µM |  | > 50 µM | 31.9 ± 4.1 µM |  | 21.8 ± 6.4 µM |  | 36.3 ± 4.6 µM | 

— PMC11280325, “Design, Synthesis, and Characterization of Novel Thiazolidine-2,4-Dione-Acridine Hybrids as Antitumor Agents” (Molecules, 2024)
